Assay results published in patent US10233202B2, “Tenofovir monobenzyl ester phosphamide prodrug, preparation method and use thereof” (JIANGSU TASLY DIYI PHARMACEUTICAL CO., LTD., priority 2015, dated 2019).
Structures can show the parent of a compound that is named as a salt. Where two headings read alike, the source gives them in different places.

Experiments:
[1] = Stability in the human blood; type: in vitro ADME; conditions: 2 μM
Method: (§1) The following stability test were carried out according to the prior art, and the data of the stability test shown in the table were the residue percentages after the test compounds were incubated for different period of time under the test condition.

[2] = Stability in the human liver S9; type: in vitro ADME; conditions: human liver S9, 1 μM
Method: as §1

hERG K-channel = hERG K-channel (Homo sapiens, UniProt Q12809); experiment: hERG manual whole-cell patch clamp in CHO cells (cardiotoxicity study); conditions: IC50, hERG current, room temperature
Method: The CHO cells obtained from AVivaBiosciences that could stably express the hERG K-channel were used in the test, and the cells were incubated at 37° C. in 5% CO2 and under constant humidity.
The final concentration of DMSO in the extracellular fluid was not higher than 0.30%.
The whole-cell patch clamp technique was used on the Multiclamp patch-clamp amplifier to test the compound at room temperature, the output signal was digitalized using the DIgiDAta 1440 A/D-D/A plate, and the Pclamp10 software was used for the control of the recording. The minimum sealing resistance was set at 500 MOh/ms, and the minimum specific hERG current was set at 0.4 nA for quality control.
Clampfit (V10.2, Molecular Devices), Excel 2003 and GraphPad Prism 5.0 were used for the data analysis. The calculation formula of the current: I/Icontrol=Bottom+(Top−Bottom)/(1+10^((LogIC50−Log C)*Hillslope

in vitro = type: cell-based; conditions: human, HepG2.2.15 cells
Method: (§2) The concentration of HBV DNA in the HepG2.2.15 cell supernatant was detected through the real-time fluorescence quantitative PCR (qPCR) method to determine the anti-HBV activity of the compound in the HepG2.2.15 cells, and the effect of the testing compounds to the HepG2.2.15 cell activity was detected through Cell-titer Blue.
(§3) 8.1. Dilution of the compounds: the initial concentration of each compound in the in vitro anti-HBV activity test was 1 μM, with 3-fold serial dilution to 8 concentrations; the initial concentration of each compound in the cytotoxicity test was 100 μM, with 3-fold serial dilution to 8 concentrations; DMSO was used for the dilution of the compound mother liquor. The initial concentrations of the reference compound TDF for the anti-HBV activity test in vitro and the cytotoxicity test were all set at 0.2 μM, with 3-fold serial dilution to 8 concentrations.
(§4) 8.3. Treatment of the cells in the cell viability test: the HepG2.2.15 cells were plated in the 96-well plate (4×10^4 cells/well), and cultured overnight at 37° C. in 5% CO2. On 2nd day, fresh culture solutions containing compounds of different concentrations were added to the culture wells. See Table 3 for the compound distribution. On 5th day, the used culture solutions in the culture wells were sucked and discarded, and fresh culture solutions containing compounds of different concentrations were added. On 8th day, Cell-titer Blue agent was added to each well, and the microplate reader was used to detect the fluorescence value of each well.
(§5) The cell viability percentage was calculated using the following formula: % cell viability=(fluorescence of sample−fluorescence of medium control)/(fluorescence of DMSO control−fluorescence of medium control)[…] 100%
(§6) 9.2 Test method: the test was carried out according to the procedure in example 1.

HepG2.2.15 cells = experiment: in vitro; type: cell-based; conditions: comparative test, Table 4
Method: as §2, §3, §4, §5, §6

HBV = experiment: Cell based anti-HBV activity test, HBV DNA in HepG2.2.15 cell supernatant by qPCR; conditions: Hepatitis B virus
Method: as §3
8.2. Anti-HBV activity test in vitro: the HepG2.2.15 cells were plated in the 96-well plate (4×10^4 cells/well), and cultured overnight at 37° C. in 5% CO2. On second day, fresh culture solutions containing compounds of different concentrations were added to the culture wells. See Table 2 for the compound distribution. On 5th day, the used culture solutions in the culture wells were sucked and discarded, and fresh culture solutions containing compounds of different concentrations were added. On 8th day, the supernatant in the culture wells was collected for the extraction of HBV DNA in the supernatant. qPCR test was used to detect the concentration of HBV DNA content in the HepG2.2.15 supernatant.
8.4. Data analysis and calculation of the inhibition percentage and relative cell viability: The inhibition percentage was calculated using the following formula: % Inh.=[(HBV quantity of DMSO control−HBV quantity of sample)/HBV quantity of DMSO control]×100%
9.1 Drugs: the dilution method and concentrations of compound 3, the reference compound (CN201380030061.6, and the compound shown in claim 36 (abbreviation: compound 7), and the isomer thereof) were the same as those in example 1.
as §6

[3] = Stability in the simulated gastric fluid; type: in vitro ADME; conditions: 10 μM
Method: as §1

[4] = Cell viability test in MT-4 cells (CellTiter Glo); type: cell-based; conditions: human
Method: 9.3. Treatment of the cells in the cell viability test: parallel tests were carried out using the same method as that in 9.2, except that the 96-well plate containing the compounds of different concentrations were replaced with the blank 96-well plate, and CellTiter Glo was used to determine the cell viability to calculate the CC50 value.
(§7) 9.4. Data analysis and calculation of the inhibition percentage: the activity percentage was calculated using the following formula: Activity (%) =(Raw datacpd−AverageVC)/(AverageCC−AverageVC)*100Cell Viability (%)=Raw datacpd/AverageCC*100

[5] = Stability in the simulated intestinal fluid; type: in vitro ADME; conditions: 10 μM
Method: as §1

HIV-1 IIIB = experiment: In vitro anti-HIV activity test in MT-4 cells infected with HIV-1 IIIB (CellTiter Glo); type: cell-based
Method: 9.1. Dilution and concentrations of the compounds and the reference compound (CN01813161GS-7340, TDF) were the same as those in example 1.
9.2. In vitro anti-HIV activity test: after MT-4 cells were infected with 24 TCID50HIV-1 IIIB/1×10^5 cells (2.4 TCID50/well) at 37° C. for 1 hour, they were plated in the 96-well plate containing the compounds of different concentrations ([…]) and cultured at 37° C. in 5% CO2 for 5 days. CellTiter Glo was used to determine the activity to calculate the EC50 value.
as §7

[6] = oral, after intestinal absorption; cited from earlier work
[7] = HepG2.2.15, HepG2.2.15 cells, comparative test, Table 4, read-out: EC50
[8] = Human immunodeficiency virus 1, MT4, 120 h, MT-4 cells infected with HIV-1 IIIB, 5 days, read-out: EC50

hERG K-channel, sequence (Q12809 whole entry): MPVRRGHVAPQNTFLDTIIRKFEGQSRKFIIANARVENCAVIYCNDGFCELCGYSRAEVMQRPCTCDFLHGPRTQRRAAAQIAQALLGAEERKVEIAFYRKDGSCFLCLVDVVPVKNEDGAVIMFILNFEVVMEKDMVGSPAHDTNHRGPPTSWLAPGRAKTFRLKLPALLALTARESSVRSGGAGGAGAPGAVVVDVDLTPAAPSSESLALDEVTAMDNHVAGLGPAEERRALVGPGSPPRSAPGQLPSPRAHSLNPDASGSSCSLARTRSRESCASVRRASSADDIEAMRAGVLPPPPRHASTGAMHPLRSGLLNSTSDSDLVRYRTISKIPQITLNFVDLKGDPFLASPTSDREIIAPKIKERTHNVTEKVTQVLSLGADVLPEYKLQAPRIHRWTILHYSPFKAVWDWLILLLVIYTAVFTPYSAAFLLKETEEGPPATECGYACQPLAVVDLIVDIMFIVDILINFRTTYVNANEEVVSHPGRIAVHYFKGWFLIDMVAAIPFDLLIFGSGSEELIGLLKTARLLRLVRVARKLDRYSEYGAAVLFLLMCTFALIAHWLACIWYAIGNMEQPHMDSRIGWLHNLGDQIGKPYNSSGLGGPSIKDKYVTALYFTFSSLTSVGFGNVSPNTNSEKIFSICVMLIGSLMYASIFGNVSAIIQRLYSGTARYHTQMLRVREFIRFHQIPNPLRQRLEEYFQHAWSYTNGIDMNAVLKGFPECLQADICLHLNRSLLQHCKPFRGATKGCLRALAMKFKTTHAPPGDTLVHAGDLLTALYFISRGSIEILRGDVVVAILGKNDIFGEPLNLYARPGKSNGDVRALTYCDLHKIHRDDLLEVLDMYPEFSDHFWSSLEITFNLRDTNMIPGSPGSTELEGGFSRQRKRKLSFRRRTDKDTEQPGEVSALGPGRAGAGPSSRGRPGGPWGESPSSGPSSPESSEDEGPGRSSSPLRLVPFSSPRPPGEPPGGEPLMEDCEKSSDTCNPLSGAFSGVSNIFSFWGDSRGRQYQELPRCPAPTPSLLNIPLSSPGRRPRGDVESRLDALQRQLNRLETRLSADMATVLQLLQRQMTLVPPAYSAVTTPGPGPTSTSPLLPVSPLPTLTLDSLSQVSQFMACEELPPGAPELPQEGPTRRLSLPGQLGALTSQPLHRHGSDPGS

SMILES	% 0 min (residue percentage) [1] [%]	% 10 min (residue percentage) [1] [%]	% 30 min (residue percentage) [1] [%]	% 60 min (residue percentage) [1] [%]	% 120 min (residue percentage) [1] [%]	CLlint(s9) [2] [µL/min/mg]	half-life at 1 μM [2] [min]	Remaining (T = 60 min) [2] [%]	CLlint(s9) ([2]; scaled per kg) [mL/min/kg]	IC50 (hERG K-channel) [µM]	% 0 min (residue percentage) [3] [%]	% 60 min (residue percentage) [3] [%]	% 120 min (residue percentage) [3] [%]	% 360 min (residue percentage) [3] [%]	% 1440 min (residue percentage) [3] [%]	CC50 at 5 days [4] [µM]	% 0 min (residue percentage) [5] [%]	% 60 min (residue percentage) [5] [%]	% 120 min (residue percentage) [5] [%]	% 360 min (residue percentage) [5] [%]	further results
CC(C)OC(=O)[C@H](C)N[P@@](=O)(CO[C@H](C)Cn1cnc2c(N)ncnc21)OCc1ccccc1 (single isomer, unassigned) [Compound 3a]	100	97.4	98.9	97.8	94.5	70.0	9.9	6	0.2464	> 10	100	85.40	58.07	14.41	0.00	22.5	100	53.62	23.45	1.26	CC50 (in vitro; Cell-titer Blue on 8th day, Table 3): > 100 µM; CC50 (HepG2.2.15 cells): > 100 µM; EC50 (HBV; [7]): 0.00339 µM; % 1440 min (residue percentage) [5]: 0.00%; EC50 (HIV-1 IIIB; [8]): 0.00513 µM
Cc1ccccc1CO[P@@](=O)(CO[C@H](C)Cn1cnc2c(N)ncnc21)N[C@@H](C)C(=O)OC(C)C [Compound 7b]	100	93.5	91.6	90.5	90.1	147.4	4.7	5	0.519	> 10	100	82.76	51.39	13.16	0.00	14.7	100	31.28	8.33	0.09	CC50 (in vitro; comparative test, Table 4): > 100 µM; EC50 (HBV; [7]): 0.275 µM; % 1440 min (residue percentage) [5]: 0.00%; EC50 (HIV-1 IIIB; [8]): 0.0837 µM
CC(C)OC(=O)[C@H](C)N[P@](=O)(CO[C@H](C)Cn1cnc2c(N)ncnc21)Oc1ccccc1 [GS-7340]	100	93.2	91.0	90.3	90.0	211.0	3.3	4	0.7427	> 10	100	95.40	66.36	23.41	0.19	13.3	100	30.09	6.22	0.06	CC50 at 6 days (in vitro; comparative test, Table 4): > 100 µM; EC50 (HBV; HepG2.2.15): 0.0178 µM; % 1440 min (residue percentage) [5]: 0.00%; EC50 (HIV-1 IIIB; Human immunodeficiency virus 1, IIIB, MT4, 120 h): 0.0143 µM
CC(C)OC(=O)OCOP(=O)(CO[C@H](C)Cn1cnc2c(N)ncnc21)OCOC(=O)OC(C)C [TDF, Tenofovir Disoproxil Fumarate]	–	–	–	–	–	–	–	–	–	–	–	–	–	–	–	21.3	–	–	–	–	EC50 (HIV-1 IIIB; [8]): 0.017 µM; fraction excreted out of the body in original form [6]: ~80%; fraction metabolized and activated into the Tenofovir parent drug under the action of esterase [6]: less than 20%
